# From patent publication US20120263736A1, “METHOD FOR PREDICTING AND TREATING A STERILE INFLAMMATION AND DISCRIMINATING BETWEEN STERILE AND INFECTIVE INFLAMMATION” (Beth Israel Deaconess Medical Center, Inc., priority 2009, published 2012)
# Experiments:
# Assay type in all cases: cell-based
# human PMN [1] = assay: PMN cytosolic calcium ([Ca2+]i) flux
# Excerpt: (§1) PMN isolation (Hauser et al., J. Leukoc. Biol. 69:63-68, 2001; Fekete et al., Shock 16:15-20, 2001), cytosolic calcium studies (Hauer et al., J. Leukoc. Biol. 69:63-68, 2001; Hauser et al., J. Trauma 48:592-598, 2000; Tarlowe et al., J. Immunol. 171:2066-2073, 2003; Grynkiewicz et al., J. Biol. Chem. 260:2440-2450, 1985), IL-8 synthesis measurement by ELISA (Zallen et al., J. Trauma 46:42-48, 1999), cell signaling by Western blots (Zhang et al., Life Sci. 77:3068-3077, 2005), transwell chemotaxis (Tarlowe et al., J. Immunol. 171:2066-2073, 2003), and video-microscopy chemotaxis assays (Chen et al., Science 314:1792-1795, 2006) were performed as previously described.
# Study data was assessed for statistical significance using Student's (unpaired) t-test or Analysis of Variance (ANOVA) where appropriate using a SigmaStat program with post-hoc tests chosen by the computer. [Ca^2+]i transients are reported as the mean change from basal [Ca^2+]i in nanomoles per liter (nM/L). Prolonged [Ca^2+]i fluxes are reported as the area under the curve (AUC) of measured change from basal [Ca^2+]i over the observation period (nM·sec). All data are reported as mean±s.e.m. with significance accepted at p<0.05.
# PMN = conditions: for PMN chemotaxis to the agent: MTD 100 μg/ml, mtDNA 10 μg/ml, CpG DNA 10 μg/ml, LPS 1 μg/ml
# Excerpt: as §1
# Time-lapse video-microscopic chemotaxis was assayed as described previously (Chen et al., Science 314:1792-1795, 2006). Cells were exposed to a chemoattractant gradient field by slowly releasing MTD (˜100 μg/ml) or fMLF (10 nM) from a micropipette tip placed in proximity to the cells. The migration paths of individual cells were plotted using Adobe Illustrator. […] Experiments were repeated with multiple PMN and MTD isolates.
# human PMN [2] = conditions: mtDNA 100 μg/mL; preincubation with chloroquine 10 μg/mL
# Description: (§2) PMN degranulation was assessed by measuring MMP-8 release. Human PMNs were suspended in HBSS with 1.8 mM Ca^2+ at 37° C. for 10 minutes while exposed to MTD, mtDNA, or fMLF at indicated concentrations. […] After stimulation, PMN were placed on ice and centrifuged. Supernatants were then assayed for MMP-8 by Western blot. Residual PMN were lysed to assay for MAPKs.
# (§3) PMN activation was assessed by measuring MMP-8/9 degranulation and intracellular MAPK phosphorylation. Human PMN were exposed to mtDNA and nDNA at 1-100 μg/mL, 30 minutes at 37° C. After stimulation, PMN were placed on ice and centrifuged (10,000 g at 4° C. for 2 minutes) to obtain supernatants, which were then assayed for MMP-8 and MMP-9 by Western blot as described below. M-PER (Pierce, Rockford, Ill.) was then used to lyse the PMN cell pellets for determination of total and phosphorylated MAPKs by Western blot as described below. Total protein concentration of the lysates was determined by BCA assay.
# (§4) Rat liver homogenates and supernatants from human PMN or human PMN lysates were boiled for 5 minutes in SDS sample buffer. Proteins were separated by SDS-PAGE using a […] polyacrylamide gel. Tris-glycine polyacrylamide gradient gels were purchased from Novex (San Diego, Calif.). Separated proteins were transferred to nitrocellulose membrane (0.45 μm pore size; Bio-Rad, Hercules, Calif.). […]
# human PMN [3] = assay: PMN p38 and p44/42 MAPK phosphorylation (Western blot); conditions: chloroquine 10 μg/mL
# Description: as §2, §3, §4
compound,measurement,setting,value
Nc1ncnc2c1ncn2[C@@H]1O[C@H](COP(=O)(O)OP(=O)(O)OP(=O)(O)O)[C@@H](O)[C@H]1O [ATP],PMN [Ca2+]i mobilization,human PMN [1]; 1 μM,mobilizes
"C/C=C/C[C@@H](C)[C@@H](O)[C@H]1C(=O)N[C@@H](CC)C(=O)N(C)CC(=O)N(C)[C@@H](CC(C)C)C(=O)N[C@@H](C(C)C)C(=O)N(C)[C@@H](CC(C)C)C(=O)N[C@@H](C)C(=O)N[C@H](C)C(=O)N(C)[C@@H](CC(C)C)C(=O)N(C)[C@@H](CC(C)C)C(=O)N(C)[C@H](C(C)C)C(=O)N1C [CsH, Cyclosporin H]",FPR-induced calcium depletion,human PMN [1]; human PMN,specifically inhibits
same,"PMN migrating to fMLF, effect of inhibitor","PMN; CsH 1 μM, fMLF 10 nM",significantly inhibits
same,"PMN chemotaxis to IL-8, effect of inhibitor","PMN; CsH, IL-8 10 nM",no effects
CCN(CC)CCCC(C)Nc1ccnc2cc(Cl)ccc12 (stereo not drawn) [chloroquine],"mtDNA-induced release of MMP-8 and -9, effect of inhibitor",human PMN [2],suppressed
same,"phosphorylation of p38 MAPK in response to mtDNA, effect of inhibitor",human PMN [3]; mtDNA 100 μg/mL,not inhibited
same,"p38 MAPK responses to mtDNA, effect of inhibitor","human PMN [3]; mtDNA 1 and 5 μg/mL, 30 minutes, 37° C.",markedly inhibited
"CSCC[C@H](NC=O)C(=O)N[C@@H](CC(C)C)C(=O)N[C@@H](Cc1ccccc1)C(=O)O [fMLF, N-formyl-methionyl-leucyl-phenylalanine]",PMN chemotaxis to the agent,"PMN; fMLF 10 nM, IL-8 10 nM",shows chemotaxis
IL-8: chemokine used as chemoattractant,PMN chemotaxis to the agent,"PMN; fMLF 10 nM, IL-8 10 nM",shows chemotaxis
